Where a name gives a salt, the structure may show the parent alone.
target: T1, human FLT4 (Homo sapiens, UniProt P35916); experiment: FLT4 kinase assay (DELFIA enzyme inhibition); assay type: biochemical; settings: read-out: FLT4 IC50
T1 construct: a construct expressing the human FLT4 (789-1207) with an amino terminal GST tag; host or cells: Sf9 insect cells (baculovirus)
Description: A GST-kinase fusion protein of 70 KDa was produced using sf9 baculovirus expression system, with a construct expressing the human FLT4 (789-1207) with an amino terminal GST tag. The protein was purified by affinity chromatography using glutathione-agarose followed by separation on a gel filtration column.
FLT4 enzyme activity is determined using a Dissociation Enhanced Lanthanide Fluorescent Immunoassay (DELFIA) with a peptide substrate derived from the MET (Tyr 1253) peptide […] with a core sequence […].
The amount of phosphorylated peptide produced is detected by means of a phospho-Tyrosine specific Europium-labelled antibody using Time-Resolved Fluorescence at Excitation 360-35 nm and Emission 620-35 nm.
Assay reactions are set up in a 25 uL final volume on a 96 well plate. […] The reaction is allowed to proceed for 30 minutes at room temperature before stopping with 100 uL Stop solution comprising of 100 mM EDTA, 1×BSA blocker in TBS (Perbio) and 0.05% Surfact-Amps20 (Perbio).
The stopped reaction is transferred to a black 96-well Neutravidin-coated plate (Perbio) and incubated for 30 minutes to capture the biotinylated peptide substrate. After washing wells 3 times with 200 uL TBS/T buffer, Anti-Phospho-Tyr-100 antibody labelled with Eu—N1 (Perkin Elmer AD0159) is added to all wells for 60 minutes at room temperature. After a repeat washing step, DELFIA Enhancement solution (Perkin Elmer) is added to all wells for 5 minutes and the fluorescence measured on a plate reader Analyst HT (Molecular Devices).
The % inhibition of the activity is calculated and plotted in order to determine the concentration of test compound required to inhibit 50% of the enzyme activity (IC50).

T1 sequence (P35916 789-1207): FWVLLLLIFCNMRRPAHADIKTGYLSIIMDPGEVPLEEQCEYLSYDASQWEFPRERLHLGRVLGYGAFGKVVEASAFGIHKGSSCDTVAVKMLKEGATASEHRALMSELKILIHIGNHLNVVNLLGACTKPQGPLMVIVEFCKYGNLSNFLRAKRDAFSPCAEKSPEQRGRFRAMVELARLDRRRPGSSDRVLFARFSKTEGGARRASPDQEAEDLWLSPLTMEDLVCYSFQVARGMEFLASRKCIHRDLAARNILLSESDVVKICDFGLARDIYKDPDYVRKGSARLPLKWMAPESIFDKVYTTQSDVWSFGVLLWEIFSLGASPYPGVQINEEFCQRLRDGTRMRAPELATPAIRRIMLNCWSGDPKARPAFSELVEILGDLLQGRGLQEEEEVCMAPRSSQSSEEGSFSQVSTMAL

Row | SMILES | IC50
1 | COc1ccc(-c2nc(-c3ccccc3)[nH]c2C(N)=O)cc1 [Example A-1, 4-(4-methoxyphenyl)-2-phenyl-1H-imidazole-5-carboxamide] | < 100 µM
2 | COc1ccc(-c2nc(-c3ccc(Br)cc3F)[nH]c2C(N)=O)cc1 [Example A-9, 2-(4-bromo-2-fluorophenyl)-4-(4-methoxyphenyl)-1H-imidazole-5-carboxamide] | < 100 µM
3 | COc1ccc(-c2nc(-c3cc(OC)cc(OC)c3)[nH]c2C(N)=O)cc1 [Example A-17, 2-(3,5-dimethoxyphenyl)-4-(4-methoxyphenyl)-1H-imidazole-5-carboxamide] | < 100 µM
4 | NC(=O)c1[nH]c(-c2c(F)cccc2F)nc1-c1ccccc1 [Example A-19, 2-(2,6-difluorophenyl)-4-phenyl-1H-imidazole-5-carboxamide] | < 100 µM
5 | COc1cccc(-c2nc(-c3c(F)cccc3F)[nH]c2C(N)=O)c1 [Example A-20, 2-(2,6-difluorophenyl)-4-(3-methoxyphenyl)-1H-imidazole-5-carboxamide] | < 100 µM
6 | COc1ccc(-c2nc(-c3c(F)cccc3F)oc2C(N)=O)cc1 [Example D-1, 2-(2,6-difluorophenyl)-4-(4-methoxyphenyl)oxazole-5-carboxamide] | < 10 µM
7 | NC(=O)c1nc(-c2c(F)cccc2F)oc1-c1cccs1 [Example E-1, 2-(2,6-difluorophenyl)-5-(thiophen-2-yl)oxazole-4-carboxamide] | < 10 µM
8 | NC(=O)c1nc(-c2c(F)cccc2F)oc1-c1ccccc1 [Example F-1, 2-(2,6-difluorophenyl)-5-phenyloxazole-4-carboxamide] | < 10 µM
9 | NC(=O)c1nc(-c2c(F)cccc2F)oc1-c1ccc(N2CCOCC2)cc1 [Example F-4, 2-(2,6-difluorophenyl)-5-(4-morpholinophenyl)oxazole-4-carboxamide] | < 10 µM
10 | CS(=O)(=O)c1ccc(-c2oc(-c3c(F)cccc3F)nc2C(N)=O)cc1 [Example F-6, 2-(2,6-difluorophenyl)-5-(4-(methylsulfonyl)phenyl)oxazole-4-carboxamide] | < 10 µM
11 | NC(=O)c1nc(-c2c(F)cccc2F)oc1-c1ccc(CN2CCOCC2)cc1 [Example F-20, 2-(2,6-difluorophenyl)-5-(4-(morpholinomethyl)phenyl)oxazole-4-carboxamide] | < 100 µM
12 | NC(=O)c1nc(-c2c(F)cccc2F)oc1-c1ccc(S(N)(=O)=O)cc1 [Example F-21, 5-(4-benzenesulfonamide)-2-(2,6-difluorophenyl)oxazole-4-carboxamide] | < 10 µM
13 | COc1ccc(-c2oc(-c3c(F)cccc3F)nc2C(N)=O)cc1OC [Example F-28, 2-(2,6-difluorophenyl)-5-(3,4-dimethoxyphenyl)oxazole-4-carboxamide] | < 10 µM
14 | NC(=O)c1nc(-c2c(F)cccc2F)oc1-c1ccc2c(c1)OCO2 [Example F-29, 5-(benzo[d][1,3]dioxol-5-yl)-2-(2,6-difluorophenyl)oxazole-4-carboxamide] | < 100 µM
15 | NC(=O)c1nc(-c2c(F)cccc2F)oc1-c1cccc(C(=O)N2CCOCC2)c1 [Example F-30, 2-(2,6-Difluorophenyl)-5-(3-(morpholine-4-carbonyl)phenyl)oxazole-4-carboxamide] | < 10 µM

Other lines, results leading:

Row | IC50 | SMILES
16 | < 10 µM | NC(=O)c1nc(-c2c(F)cccc2F)oc1-c1ccc(CNS(=O)(=O)c2ccc(F)cc2)cc1 [Example K-1, 2-(2,6-difluorophenyl)-5-(4-((4-fluorophenylsulfonamido)methyl)phenyl)oxazole-4-carboxamide]
17 | < 10 µM | NC(=O)c1nc(-c2c(F)cccc2F)oc1-c1ccc(CNS(=O)(=O)c2ccccc2)cc1 [Example K-2, 2-(2,6-difluorophenyl)-5-(4-(phenylsulfonamidomethyl)phenyl)oxazole-4-carboxamide]
18 | < 10 µM | NC(=O)c1nc(-c2c(F)cccc2F)oc1-c1ccc(CNC(=O)c2ccccc2)cc1 [Example L-1, 5-(4-(benzamidomethyl)phenyl)-2-(2,6-difluorophenyl)oxazole-4-carboxamide]
19 | < 10 µM | NC(=O)c1nc(-c2c(F)cccc2F)oc1-c1ccc(CNC(=O)c2cccs2)cc1 [Example L-3, 2-(2,6-difluorophenyl)-5-(4-((thiophene-2-carboxamido)methyl)phenyl)oxazole-4-carboxamide]
20 | < 10 µM | COc1ccc(-c2oc(-c3cccs3)nc2C(N)=O)cc1 [Example M-1, 5-(4-methoxyphenyl)-2-(thiophen-2-yl)oxazole-4-carboxamide]
21 | < 10 µM | COc1ccc(-c2oc(-c3ccsc3)nc2C(N)=O)cc1 [Example M-5, 5-(4-methoxyphenyl)-2-(thiophen-3-yl)oxazole-4-carboxamide]
22 | < 10 µM | NC(=O)c1nc(-c2c(F)cccc2F)oc1-n1cnc2ccccc21 [Example Q-38, 5-(1H-benzo[d]imidazol-1-yl)-2-(2,6-difluorophenyl)oxazole-4-carboxamide]
23 | < 10 µM | COc1cc(Nc2oc(-c3c(F)cccc3F)nc2C(N)=O)cc(OC)c1OC [Example Q-40, 2-(2,6-difluorophenyl)-5-(3,4,5-trimethoxyphenylamino)oxazole-4-carboxamide]
24 | < 10 µM | NC(=O)c1nc(Nc2cn[nH]c2)oc1-c1ccc(N2CCNCC2)cc1 [Example R-19, 2-(1H-pyrazol-4-ylamino)-5-(4-(piperazin-1-yl)phenyl)oxazole-4-carboxamide]
25 | < 10 µM | NC(=O)c1nc(-c2c(F)cccc2F)oc1Nc1ccc(N)cc1 [Example V-1, 5-(4-aminophenylamino)-2-(2,6-difluorophenyl)oxazole-4-carboxamide]
26 | < 100 µM | NC(=O)c1nc(-c2c(F)cccc2F)oc1-c1cccc(CN2CCOCC2)c1 [Example X-1, 2-(2,6-Difluorophenyl)-5-(3-(morpholinomethyl)phenyl)oxazole-4-carboxamide]
27 | < 100 µM | NC(=O)c1nc(-c2c(F)cccc2F)oc1-c1cccc(CN2CCNC(=O)C2)c1 [Example X-2, 2-(2,6-Difluorophenyl)-5-(3-((3-oxopiperazin-1-yl)methyl)phenyl)oxazole-4-carboxamide]
28 | < 100 µM | NC(=O)c1nc(-c2c(F)cccc2F)oc1-c1cccc(CN2CCNCC2)c1 [Example X-3, 2-(2,6-Difluorophenyl)-5-(3-(piperazin-1-ylmethyl)phenyl)oxazole-4-carboxamide formate salt]
29 | < 100 µM | NCC1CN(Cc2cccc(-c3oc(-c4c(F)cccc4F)nc3C(N)=O)c2)CCO1 (centres unmarked) [Example X-4, 5-(3-((2-(Aminomethyl)morpholino)methyl)phenyl)-2-(2,6-difluorophenyl)oxazole-4-carboxamide formate salt]

— US9187465B2, “Oxazole tyrosine kinase inhibitors” (Sareum Limited, priority 2007, dated 2015)
